From patent US5560923A (Georgetown University, priority 1994, dated 1996) come the findings set out here.

Data set [1] can be described thus: Complex formation of drug with cardiolipin-containing liposomes (centrifugation, spectrophotometry of supernatant). Conditions: same conditions as doxorubicin, mixed with cardiolipin-containing liposomes. It is filed as physicochemical. The protocol: Formation of the complex liposome-doxorubicin was evaluated relative to the time of the incubation at 25° C. following the mixing of both components (FIG. 1).
Association capacity of doxorubicin to cardiolipin-liposomes was evaluated for different concentrations of mixture of both components mixed in the same volume (5 ml) after an incubation of 15 min. at 37° C. at a fixed liposome/doxorubicin weight ratio of 11 (Table 1).

A further data set has as its system LZ cells. The experiment in a line: Clonogenic assay, cytotoxicity / multidrug resistance reversal in LZ cells. Conditions: mixed with cardiolipin-containing liposomes. As to the method: Percent survival of treated cells was determined relative to untreated control.

On to `CC[C@]1(O)C[C@H]2CN(CCc3c([nH]c4ccccc34)[C@@](C(=O)OC)(c3cc4c(cc3OC)N(C=O)[C@H]3[C@@](O)(C(=O)OC)[C@H](OC(C)=O)[C@]5(CC)C=CCN6CC[C@]43[C@@H]65)C2)C1` [vincristine], for which the “association between drug and liposome (in words)” value in data set [1] is “no association between drug and liposome was formed”. For the same compound, in the data set on LZ cells, the “increase in drug cytotoxicity (in words)” value is “no increase in drug cytotoxicity was observed”.
